Data on 17 molecules can be found in patent US7253194B2, “Compounds and inhibitors of phospholipases” (The University of Queensland, priority 2000, dated 2007).

One may read the IC50 as the concentration that inhibits the measured activity by half.

The target in the assay is T1, human non-pancreatic sPLA2 (type IIa) (Homo sapiens, UniProt P14555).
T1 construct: Garvan Institute for Medical Research (provided, not a commercial vendor)
T1 sequence (P14555 21-144): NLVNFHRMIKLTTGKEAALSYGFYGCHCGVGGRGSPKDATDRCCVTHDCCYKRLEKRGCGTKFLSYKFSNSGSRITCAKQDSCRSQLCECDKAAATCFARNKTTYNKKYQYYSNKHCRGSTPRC
The experiment in a line: Assay for inhibition of human non-pancreatic sPLA2 (type IIa), mixed micelle colorimetric assay. Format: biochemical. To be noted: recombinant hIIa-PLA2; substrate diheptanoyl thio-phosphatidyl choline, DTNB detection; IC50 from Dixon plot extrapolation; read-out: IC50, inhibition of human secretary PLA2. The source says: Assay for Inhibition of Human Non-Pancreatic sPLA2 (type IIa)
A mixed nucelle colorimetric assay utilising a microtitreplate reader was used as described by Reynolds, L. J.; Hughes, L. L.; Dennis, E. A. “Analysis of human synovial fluid phospholipase A2 on short chain phosphatidylcholine-mixed micelles: Development of a spectrophotometric assay suitable for a microplate reader”. Anal Biochem. 1992, 204, 190-197.
Reagents were obtained commercially in the sPhospholipase A2 Assay Kit, Cayman Chemical Company MI USA. Buffer (25 mM Tris HCl at pH 7.5, 1 mg/mL BSA, 0.3 mM Triton X-100, 100 mM KCl, 10 mM CaCl2), substrate (diheptanoyl thio-phosphatidyl choline), DTNB (5,5′-dithiobis(2-nitrobenzoic acid)) and a 96 well plate were all provided. Recombinant hIIa-PLA2 was provided by the Garvan Institute for Medical Research. […] Standard inhibitor solutions were prepared from anhydrous DMSO. All samples were run in triplicate including the blank and control samples. Data was collected on a Molecular Devices Spectramax 250 Microplate Spectrophotometer using Softmax Pro Microplate Analysis Software v2.21. […] Thio-PC is processed by s-PLA2 and the free thiol produced is detected with DTNB (Ellman's Reagent). 5-Thio-2-nitrobenzoic acid is detected spectrophotometrically at […]. IC50's were determined by assaying inhibitors at a range of concentrations.
Turning to `O=C(O)CC[C@@H](Cc1cn(Cc2ccccc2)c2ccccc12)NC(=O)CCCCCCc1ccccc1` [Compound 19, (S)-5-(1-Benzyl-1H-indol-3-yl)-4-(7-phenyl-heptanoylamino)-pentanoic acid], the IC50 is 5700 nM.
Then `O=C(CCCCCCc1ccccc1)N[C@@H](COP(=O)(O)CCCOc1ccccc1)Cc1ccc(OCc2ccccc2)cc1` [Compound 57, (R)-(3-Phenoxy-propyl)-phosphonic acid mono-[3-(4-benzyloxy-phenyl)-2-(7-phenyl-heptanoylamino)-propyl]ester], with 656 nM.
As for `O=C(O)CCC(Cc1ccc(OCc2ccccc2)cc1)NC(=O)CCCCCCc1cccc([N+](=O)[O-])c1` (racemic) [Compound 90, (RS)-5-(4-Benzyloxy-phenyl)-4-[7-(3-nitro-phenyl)-heptanoylamino]-pentanoic acid], the IC50 is 1070 nM.
Then `CC(=O)Nc1cccc(CCCCCCC(=O)NC(CCC(=O)O)Cc2ccc(OCc3ccccc3)cc2)c1` (racemic) [Compound 89, (RS)-4-[7-(3-Acetylamino-phenyl)-heptanoylamino]-5-(4-benzyloxy-phenyl)-pentanoic acid], with 8100 nM; and `O=C(O)CCC(Cc1ccc(OCc2ccccc2)cc1)NC(=O)CCCCCCCc1ccccc1` (racemic) [Compound 87, (RS)-5-(4-Benzyloxy-phenyl)-4-(8-phenyl-octanoylamino)-pentanoic acid], with 435 nM; and `O=C(O)CCC(Cc1ccc(OCc2ccccn2)cc1)NC(=O)CCCCCCc1ccccc1` (racemic) [Compound 95, (RS)-4-(7-Phenyl-heptanoylamino)-5-[4-(pyridin-2-ylmethoxy)-phenyl]-pentanoic acid], with 428 nM.
`O=C(O)CC[C@@H](CCc1ccc(Oc2ccccc2)cc1)NC(=O)CCCCCCc1ccccc1` [Compound 106, 6-(4Phenoxy-phenyl)-4R-(7-phenyl-heptanoylamino)-hexanoic acid]: the IC50 is 99 nM.
Take `COc1ccccc1CCCCCCC(=O)NC(CCC(=O)O)Cc1ccc(OCc2ccccc2)cc1` (racemic) [Compound 88, (RS)-5-(4-Benzyloxy-phenyl)-4-[7-(2-methoxy-phenyl)-heptanoylamino]-pentanoic acid]: the IC50 is 7400 nM.
As for `O=C(O)CCC(Cc1ccc(OCc2ccccc2)cc1)NC(=O)CCCCCCc1cccnc1` (racemic) [Compound 91, (RS)-5-(4-Benzyloxy-phenyl)-4-(7-pyridin-3-yl-heptanoylamino)-pentanoic acid], the IC50 is 1520 nM.
The result for `O=C(CCCCCCc1ccccc1)N[C@@H](CCc1nnn[nH]1)Cc1ccc(OCc2ccccc2)cc1` [Compound 66, (S)-7-Phenyl-heptanoic acid [1-(4-benzyloxy-benzyl)-3-(1H-tetrazol-5-yl)-propyl]-amide] reads 356 nM; that for `O=C(O)CC[C@@H](CCc1ccc(Oc2ccccc2)cc1)NC(=O)CCCCCCc1cccnc1` [Compound 107, 6-(4-Phenoxy-phenyl)-4R-(7-pyridin-3-yl-heptanoylamino)-hexanoic acid], 1700 nM.
Then `O=C(O)CCC(Cc1cn(CCCc2ccccc2)cn1)NC(=O)CCCCCCc1ccccc1` (centres unmarked) [Compound 32, 4-(7-Phenyl-heptanoylamino)-5-[1-(3-phenyl-propyl)-1H-imidazol-4-yl]-pentanoic acid], with 2500 nM; and `O=C(CCCCCCc1ccccc1)NC(COP(=O)(O)CCCO)Cc1ccc(OCc2ccccc2)cc1` (centres unmarked) [Compound 62, (3-Hydroxy-propyl)-phosphonic acid mono-[3-(4-benzyloxy-phenyl)-2-(7-phenyl-heptanoylamino)-propyl]ester], with 24 nM.
The result for `O=C(O)CCC(Cc1ccc(OCc2cccnc2)cc1)NC(=O)CCCCCCc1ccccc1` (racemic) [Compound 96, (RS)-4-(7-Phenyl-heptanoylamino)-5-[4-(pyridin-3-ylmethoxy)-phenyl]-pentanoic acid] reads 454 nM.
As to `O=C(O)CCC(Cc1ccc(OCc2ccccc2)cc1)NC(=O)CCCCCc1ccccc1` (racemic) [Compound 86, (RS)-5-(4-Benzyloxy-phenyl)-4-(6-phenyl-hexanoylamino)-pentanoic acid], the IC50 is 383 nM.
The result for `O=C(O)CC[C@@H](Cc1cn(CCCc2ccccc2)c2ccccc12)NC(=O)CCCCCCc1ccccc1` [Compound 20, (S)-4-(7-Phenyl-heptanoylamino)-5-[1-(3-phenyl-propyl)-1H-indol-3-yl]-pentanoic acid] reads 2900 nM.
As to `O=C(O)CCC(CCc1ccccc1)NC(=O)CCCCCCc1ccccc1` (racemic) [Compound 102, (RS)-6-Phenyl-4-(7-phenyl-heptanoylamino)-hexanoic acid], the IC50 was 1500 nM.
